The source of these data is ChEMBL document CHEMBL1126549, “A novel series of selective, non-peptide inhibitors of angiotensin II binding to the AT2 site” (J Med Chem, 1993).

Assay [1] addresses T1, Type-2 angiotensin II receptor (Rattus norvegicus, UniProt P35351).
T1 sequence (P35351 whole entry): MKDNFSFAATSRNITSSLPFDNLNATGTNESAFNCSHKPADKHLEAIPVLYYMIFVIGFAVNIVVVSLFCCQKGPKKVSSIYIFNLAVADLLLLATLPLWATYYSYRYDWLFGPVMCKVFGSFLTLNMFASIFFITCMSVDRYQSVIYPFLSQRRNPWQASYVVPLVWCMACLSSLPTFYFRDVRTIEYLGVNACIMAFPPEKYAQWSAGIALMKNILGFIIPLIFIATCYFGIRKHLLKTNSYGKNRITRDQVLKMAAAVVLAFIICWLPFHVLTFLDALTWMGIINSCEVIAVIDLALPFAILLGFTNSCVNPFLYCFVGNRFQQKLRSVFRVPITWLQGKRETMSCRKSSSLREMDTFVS
In words: Binding affinity towards Angiotensin II receptor, type 2 in rat isolated adrenal medullary microsomes. Further details: species or system Adrenal medulla, Microsome.

Assay [2] deals with T2, Angiotensin II receptor (AT-1) type-1 (Rattus norvegicus, UniProt P29089+P25095).
T2 sequence (P29089 whole entry): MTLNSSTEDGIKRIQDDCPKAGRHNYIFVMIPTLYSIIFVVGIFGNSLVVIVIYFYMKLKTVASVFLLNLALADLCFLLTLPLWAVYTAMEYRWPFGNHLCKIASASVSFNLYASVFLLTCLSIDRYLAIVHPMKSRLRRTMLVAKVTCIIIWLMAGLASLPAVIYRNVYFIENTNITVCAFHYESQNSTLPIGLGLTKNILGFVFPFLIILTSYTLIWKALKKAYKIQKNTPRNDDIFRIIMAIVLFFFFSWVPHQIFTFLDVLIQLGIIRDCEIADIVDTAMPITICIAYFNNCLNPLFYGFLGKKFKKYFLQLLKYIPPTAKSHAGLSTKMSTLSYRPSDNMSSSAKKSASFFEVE
T2 sequence (P25095 whole entry): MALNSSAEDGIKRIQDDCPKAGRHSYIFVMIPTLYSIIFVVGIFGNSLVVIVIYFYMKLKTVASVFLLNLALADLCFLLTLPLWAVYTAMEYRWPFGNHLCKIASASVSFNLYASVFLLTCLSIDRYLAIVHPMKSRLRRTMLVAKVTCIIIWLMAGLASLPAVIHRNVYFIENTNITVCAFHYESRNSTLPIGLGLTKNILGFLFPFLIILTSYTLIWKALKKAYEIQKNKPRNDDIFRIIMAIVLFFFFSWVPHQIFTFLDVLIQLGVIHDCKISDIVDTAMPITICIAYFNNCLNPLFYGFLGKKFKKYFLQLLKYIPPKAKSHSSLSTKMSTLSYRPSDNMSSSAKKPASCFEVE
In words: Binding affinity towards Angiotensin II receptor, type 1 in rat isolated adrenal cortical microsomes. Further details: species or system Microsome.

In assay [3] the target is T1, Type-2 angiotensin II receptor. In words: Binding affinity towards angiotensin II AT2 receptor subtype was determined using rat isolated adrenal […] microsomes.

Turning to `COc1ccc(Cc2cccc3c2CC(C(=O)O)N(C(=O)N(C)c2ccccc2)C3)cc1` (centres undefined), the IC50 was 400 nM in assay [1] and greater than 10000 nM in assay [2].

For `O=C(O)C1Cc2cc(-c3ccccc3)ccc2CN1C(=O)C(c1ccccc1)c1ccccc1` (centres undefined), the figures for the IC50 in assay [1] and in assay [2] were 30 nM and greater than 10000 nM, respectively.

Turning to `COc1ccc(Cc2cccc3c2CC(C(=O)O)N(C(=O)C(c2ccccc2)c2ccccc2)C3)cc1` (centres undefined), the IC50 in assay [1] was determined as 90 nM; in assay [2], 7000 nM.

On to `COc1ccc(-c2cccc3c2CC(C(=O)O)N(C(=O)C(c2ccccc2)c2ccccc2)C3)cc1` (centres undefined), for which the IC50 was 40 nM in assay [1] and 10000 nM in assay [2].

As to `O=C(O)C1Cc2ccccc2CN1C(=O)C(c1ccccc1)c1ccccc1` (centres undefined), the IC50 was 2500 nM in assay [1] and greater than 30000 nM in assay [2].

Take `O=C(O)C1Cc2c(Cc3ccccc3)cccc2CN1C(=O)C(c1ccccc1)c1ccccc1` (stereo in doubt; 21): the IC50 in assay [1] stood at 90 nM; in assay [2], 10000 nM.

Take `COc1ccc(-c2cccc3c2CC(C(=O)O)N(C(=O)C(c2ccccc2)c2ccccc2)C3)cc1C` (centres undefined): the IC50 in assay [1] is 70 nM; in assay [2], greater than 10000 nM.

Regarding `O=C(O)C1Cc2cc(O)ccc2CN1C(=O)C(c1ccccc1)c1ccccc1` (centres undefined), the IC50 in assay [1] is 600 nM; in assay [2], greater than 10000 nM.

As to `COc1ccc(Cn2cnc3c2C[C@@H](C(=O)O)N(C(=O)C(c2ccccc2)c2ccccc2)C3)cc1C`, the 50% inhibitory concentration (IC50) in assay [3] is 10 nM.

Take `O=C(O)C1Cc2cc(Oc3ccccc3)ccc2CN1C(=O)C(c1ccccc1)c1ccccc1` (centres undefined): the IC50 in assay [1] was 60 nM; in assay [2], greater than 10000 nM.

Take `Cc1cccc2c1CC(C(=O)O)N(C(=O)C(c1ccccc1)c1ccccc1)C2` (centres undefined): the IC50 is 300 nM in assay [1] and greater than 10000 nM in assay [2].

For the compound `COc1ccc(Cc2cccc3c2CC(C(=O)O)N(C(=O)C(c2ccccc2)c2ccccc2)C3)cc1C` (centres undefined), the concentration for half-maximal inhibition (IC50) in assay [1] is 100 nM; in assay [2], 5000 nM.

In the case of `COC(=O)C1Cc2c(Cc3ccc(OC)cc3)cccc2CN1C(=O)C(c1ccccc1)c1ccccc1` (centres undefined), the IC50 in assay [1] and in assay [2] was greater than 10000 nM in each case.

As to `O=C(O)C1Cc2c(Cc3ccccc3)cccc2CN1C(=O)C(c1ccccc1)c1ccccc1` (stereo in doubt; 23), the IC50 is 80 nM in assay [1] and 4000 nM in assay [2].

In the case of `COC(=O)C1Cc2c(C)cccc2CN1C(=O)C(c1ccccc1)c1ccccc1` (centres undefined), the IC50 is 5000 nM in assay [1] and greater than 10000 nM in assay [2].

For `CN(C(=O)N1Cc2ccc(Oc3ccccc3)cc2CC1C(=O)O)c1ccccc1` (centres undefined), the IC50 is 300 nM in assay [1] and greater than 10000 nM in assay [2].

Consider `CCCCCc1cccc2c1CC(C(=O)O)N(C(=O)C(c1ccccc1)c1ccccc1)C2` (centres undefined), for which the IC50 in assay [1] was 40 nM; in assay [2], greater than 10000 nM.

For `COc1ccc(Cc2cccc3c2CC(C(=O)O)N(C(=O)N(c2ccccc2)c2ccccc2)C3)cc1` (centres undefined), the IC50 in assay [1] was determined as 200 nM; in assay [2], 10000 nM.

For `O=C(O)C1Cc2c(cccc2-c2ccccc2)CN1C(=O)C(c1ccccc1)c1ccccc1` (centres undefined), the IC50 was 40 nM in assay [1] and greater than 10000 nM in assay [2].

`COC(=O)C1Cc2c(cccc2-c2ccc(OC)cc2)CN1C(=O)C(c1ccccc1)c1ccccc1` (centres undefined): the figures for the IC50 in assay [1] and in assay [2] were 2000 nM and greater than 10000 nM, respectively.

Take `COC(=O)C1Cc2c(Cc3ccccc3)cccc2CN1C(=O)C(c1ccccc1)c1ccccc1` (centres undefined): the IC50 in assay [1] is 7000 nM; in assay [2] it was greater than 10000 nM.

`O=C(O)C1Cc2c(Cc3ccccc3)cccc2CN1C(=O)C(c1ccccc1)c1ccccc1` (stereo in doubt; 22) registered an IC50 in assay [1] of 70 nM.

As to `COC(=O)C1Cc2c(cccc2-c2ccccc2)CN1C(=O)C(c1ccccc1)c1ccccc1` (centres undefined), the IC50 in assay [1] is 2000 nM; in assay [2] it was greater than 10000 nM.

The IC50 is the midpoint of a concentration-inhibition curve. Higher therefore signals weaker potency in that assay.
